Data taken from US5373040A, “Amorphous solid modification of 2,2',2"-nitrilo[triethyl-tris-(3,3',5,5'-tetra-tert-butyl-1,1'-biphenyl- 2,2'-diyl)phosphite]” (Ciba-Geigy Corporation, priority 1993, dated 1994).

Tests used:
[1] = Apparent bulk density (ASTM D-1895); type: physicochemical
Method: The apparent bulk density of the solids is measured according to the method of ASTM D-1895 (79). A higher apparent bulk density allows for a greater mass per unit volume which affords advantages in packaging of the solid product, such as lower costs for the packaging material, less storage space is required, etc.

[2] = Process stabilization of polypropylene at 525° F.: melt flow rate (ASTM D1238); settings: in the presence of a representative phenolic antioxidant; versus prior art compound of U.S. Pat. No. 4,318,845
Method: The test additives are incorporated into the polypropylene by dry blending or, when the additive is a liquid, using a minimum amount of methylene chloride solvent. The solvent is then removed by evaporation under reduced pressure.
After each of the first, third and fifth extrusions, the melt flow rate (in grams/10 minutes) is determined by ASTM method D1238 on the pellets obtained from the extruder.

[3] = Solubility in lubricating oil (Mobil BB oil); type: physicochemical
Method: The following experiments are performed to determine the solubility of amorphous compound A and crystalline compound B in Mobil BB oil. Both compounds have the same uniform particle sizes (40-70 micron).
Compound A=amorphous form of 2,2',2"-nitrilo-[triethyl-tris-(3,3',5,5'-tetra-tert-butyl-1,1'-biphenyl-2,2'-diyl) phosphite], prepared in accordance with instant Example 1.
Compound B=crystalline form of 2,2',2"-nitrilo[triethyl-tris-(3,3',5,5'-tetra-tert-butyl-1,1'-biphenyl-2,2'-diyl) phosphite], prepared in accordance with Example 4 of U.S. Pat. No. 4,318,845.
Into a vial of 980 mg. of Mobil BB oil is added 20 mg. of compound A at ambient temperature. For the first 30 minutes, the vial is shaken every 10 minutes. After the initial 30 minutes, the vial is left standing.
Into a vial of 980 mg. of Mobil BB oil is added 20 mg. of compound B at ambient temperature. For the first 30 minutes, the vial is shaken every 10 minutes. After the initial 30 minutes, the vial is left standing.
Into a vial of 980 mg. of Mobil BB oil is added 20 mg. of compound A at ambient temperature. The vial is then placed into a 60° C. oil bath.
Into a vial of 980 mg. of Mobil BB oil is added 20 mg. of compound B at ambient temperature. The vial is then placed into a 60° C. oil bath.
Into a vial of 990 mg. of Mobil BB oil is added 10 mg. of compound A at ambient temperature. […] is shaken every 10 minutes. After the initial 30 minutes, the vial is left standing.
Into a vial of 990 mg. of Mobil BB oil is added 10 mg. of compound B at ambient temperature. […] is shaken every 10 minutes. After the initial 30 minutes, the vial is left standing.

[4] = Stabilization of polyol: discoloration or scorch of foam; settings: 1000 ppm plus BHT 2000 ppm and NAUGARD 445 2000 ppm; versus control stabilizer package
Method: A premix of 10 g of water, 0.25 g of triethylenetetramine, 2 g of L-5740 (silicone surfactant, Union Carbide) and 20 g of ANTIBLAZE® AB-100 (chlorinated aromatic flame retardant, Albright & Wilson) is added to 200 g of 3000 molecular weight polyether polyol containing the stabilizer package listed below*. The mixture is stirred for five minutes with a high speed Lightning Mixer. Then 0.4 g of stannous octoate is added and the mixture is stirred for 5 seconds. Finally, 125 g of toluene diisocyanate ([…]) is added. The mixture is stirred for 7 seconds at high speed mixing and is then poured into a 10"×10"×5" (25.4 cm×25.4 cm×12.7 cm) cardboard box. The foam is allowed to rise completely. After standing 5 minutes, the box is removed and the sample cured in a microwave over for five minutes at 50% power. The foam is then immediately air over cured at 125° C. for three minutes. The foams are then cut in half for visual assessment of discoloration or scorch.
Control is 2,6-di-tert-butyl-4-methylphenol (BHT) 2000 ppm; and NAUGARD® 445 (diphenylamine antioxidant, Uniroyal) 2000 ppm.
Instant package is the above plus 1000 ppm of the compound of Example 1.

[5] = Stabilization of poly(ethylene terephthalate): intrinsic viscosity; settings: 0.5% by weight, five extrusion passes; versus PET containing no stabilizer
Method: Poly(ethylene terephthalate), PET (KODAPAR® 7352, Eastman Chemical) is tumble blended with 0.5% by weight of the compound of instant Example 1. The polymer is then extruded and pelletized at 500° F. (260°C.) in a MPM 1" (2.54 cm) single screw extruder. The pellets are collected, redried and reextruded 5 times. Pellets are collected from each extrusion pass and the polymer intrinsic viscosity measured.

[6] = Stabilization of poly(butylene terephthalate): yellowness index; settings: 0.3% by weight; versus control unstabilized PBT
Method: Poly(butylene terephthalate), PBT (RYNITE® 9160, DuPont) is tumble blended with 0.3% by weight of the compound of instant Example 1. The polymer is then extruded and pelletized at 260° C. A portion of the collected pellets are reextruded under the same conditions for a second pass. The remainder from the first extrusion is injection molded into 2"×2"×125 mil (5.08 cm×5.08 cm×3.175 mm) plaques at 540° F. (282° C.) with a 100° C. mold temperature in a BOY 30M molder. Intrinsic viscosities of the second pass extrudate and the injection molded plaques are determined.
The plaques are measured for yellowness index (color) using ASTM D 1925-70.

[7] = compared to the prior art crystalline form

## CC(C)(C)c1cc(C(C)(C)C)c2op(OCCN(CCOp3oc4c(C(C)(C)C)cc(C(C)(C)C)cc4c4cc(C(C)(C)C)cc(C(C)(C)C)c4o3)CCOp3oc4c(C(C)(C)C)cc(C(C)(C)C)cc4c4cc(C(C)(C)C)cc(C(C)(C)C)c4o3)oc3c(C(C)(C)C)cc(C(C)(C)C)cc3c2c1 [Example 1, 2,2',2"-nitrilo[triethyl-tris-(3,3',5,5'-tetra-tert-butyl-1,1'-biphenyl-2,2'-diyl)phosphite]]
[1]
  Bulk Density: 0.49 g/mL
[2]
  stabilizing polypropylene against thermal and oxidative degradation (change in melt flow rate): equal or more effective
[3]; 1% by weight in Mobil BB oil, RT, 1.5 hrs., listed as A
  Observation: Clear solution
[3]; 1% by weight in Mobil BB oil, RT, 1.5 hrs., listed as compound A
  Observation: clear solution
[3]; 1% by weight in Mobil BB oil, RT, listed as A
  Time to clear solution: 1.5 h
[3]; 1% by weight in Mobil BB oil, RT, listed as compound A
  Time to clear solution: 1.5 h
[3]; 2% by weight in Mobil BB oil, 60° C. oil bath, 10 min., listed as A
  Observation: Clear solution
[3]; 2% by weight in Mobil BB oil, 60° C. oil bath, 10 min., listed as compound A
  Observation: clear solution
[3]; 2% by weight in Mobil BB oil, 60° C. oil bath, listed as A
  Time to clear solution: 0.167 h
[3]; 2% by weight in Mobil BB oil, 60° C. oil bath, listed as compound A
  Time to clear solution: 0.167 h
[3]; 2% by weight in Mobil BB oil, RT, 2.5 hrs., listed as A
  Observation: Clear solution
[3]; 2% by weight in Mobil BB oil, RT, 2.5 hrs., listed as compound A
  Observation: clear solution
[3]; 2% by weight in Mobil BB oil, RT, listed as A
  Time to clear solution: 2.5 h
[3]; 2% by weight in Mobil BB oil, RT, listed as compound A
  Time to clear solution: 2.5 h
[3]; [7]
  rate of dissolving in lubricants: faster rate of dissolving
  rate of dissolving in organic materials, such as in polymers and in lubricants: faster rate of dissolving
  solubility in lubricants: better solubility
  solubility in organic materials, such as in polymers and in lubricants: better solubility
[4]
  discoloration of foam (visual inspection): less discolored
  scorch protection: better scorch protection
[5]
  retention of original intrinsic viscosity: higher retention of original intrinsic viscosity
[6]
  yellowness index (color): lower YI values (less discoloration)
